tested on: ddY male mice; experiment: Y-maze test: improvement effect on cognitive impairment caused by MK-801 (spontaneous alternation behavior); assay type: in vivo; conditions: oral, once, one hour before test, MK-801 0.15 mg/kg i.p. 20 minutes before
Experimental: The improvement effect of the compound of the present invention on cognitive impairment was evaluated using a Y-maze test which is an experiment system of alternation behavior.
As a Y-maze, a maze, in which three tracks having a length of one arm of 40 cm, a height of a wall of 13 cm, a width of a bottom of 3 cm, and a width of a top of 10 cm are each joined in the Y shape at a degree of 120, was used. […]
The above-described mice were allowed to explore freely for 8 minutes after being placed at an end of one track in the Y-maze, and the track and the sequence in which the mice entered were recorded. The number of times the mice entered within the measurement time was counted, and taken as a total entry number. Among these, a combination in which the mice successively entered different three tracks (for example, when taking three arms as a, b, and c, respectively, a case where the order of the arm that entered was “abccbacab” was counted as 4, inclusive of overlapping) was considered as a spontaneous alternation behavior number. The spontaneous alternation behavior rate was calculated by the following calculation and used as an index for a spontaneous alternation behavior: Spontaneous alternation behavior rate=spontaneous alternation behavior number/(total number of entries−2)×100 […]
The measured values were expressed in average values±standard errors for each group. […]

Question: With `CN(Cc1nc2cc(C(F)(F)F)ccc2[nH]1)C(=O)Cn1c(=O)oc2ccc(Cl)cc21.Cl` [Example 1, 2-(5-chloro-2-oxo-1,3-benzoxazol-3 (2H)-yl)-N-methyl-N-{[5-(trifluoromethyl)-1H-benzimidazol-2-yl]methyl}acetamide hydrochloride] as the compound, how does the “Data 2: effective concentration (improved the spontaneous alternation behavior)” value read?
Answer: 0.1 mg/kg

Question: For `CN(Cc1nc2cc(Br)ccc2[nH]1)C(=O)Cn1c(=O)oc2ccc(Cl)cc21` [Example 20], which “Data 2: effective concentration (improved the spontaneous alternation behavior)” value is on record?
Answer: 1.0 mg/kg

biological target: T1, dopamine D1 receptor (Homo sapiens, UniProt P21728); experiment: Evaluation of positive allosteric modulating activity: leftward shift of dopamine dose-response curve (cAMP) in CHO cells stably expressing human dopamine D1 receptor; assay type: cell-based; conditions: extrapolated by linear function from dopamine EC50 at each test drug concentration
T1 construct: expressed in transfected cells
Experimental: The composition of a buffer used in Test Example 1 is as follows.
Buffer for assay=αMEM containing 1 μM IBMX.
Buffer for dilution=αMEM containing 1 μM IBMX and 0.8 mM ascorbic acid.
The positive allosteric modulating activity of the compound of the present invention was evaluated according to the ratio of the leftward shift in a dopamine dose-response curve.
The leftward shift means that a dose-response curve of dopamine, in which the logarithm of a dose is on the horizontal axis (X-axis) and a response (cAMP concentration in this test) is on the vertical axis (Y-axis), shifts in parallel in the negative direction of the X-axis by the administration of a positive allosteric modulator.
The coding sequences of a dopamine D1 receptor in a human (Accession No.: NM_000794.3) were amplified by PCR and subcloned into a pEF-BOS vector. The resulting construct was transfected to CHO (-dhrf) cells (ATCC No.: CRL-9096) using Lipofectamine 2000 (Invitrogen Inc.). The clones stably transfected were obtained by selection using 100 nM MTX. The obtained cell clones were maintained in αMEM containing 10% FBS, 1 mg/mL penicillin, and 1 U/streptomycin.
Dose-Response Curve of Dopamine Using test drug was drawn on the basis of the following experiments.
A buffer for assay of a test drug was serially diluted (concentrations 0.48 μM to 40 μM, 3-fold dilutions). The serially diluted solutions of the test drug were dispensed in each portion of 2.5 μL to black 384-well plates (Becton Dickinson, Inc.).
CHO cells stably expressing a dopamine D receptor of a human were seeded in each portion of 5 μL in each well at a density of 5000 cells/well, centrifuged in a centrifuge for a plate (05PR-22, Hitachi Co., Ltd., 800 rpm), and then allowed to stand for 10 minutes.
Serially diluted solutions of dopamine were prepared from a DMSO solution of dopamine (Sigma Co.) with a buffer for dilutions (concentrations 0.018 μM to 13.2 μM, 3-fold dilutions), and the serially diluted solutions of dopamine were dispensed in portions of 2.5 μL to each well of a plate.
The plate was stirred using a plate shaker (Sanko Junyaku (mx-5)) and then allowed to stand at room temperature for 20 minutes (final concentration: test drug 0 μM to 10 μM, dopamine 0 μM to 3.3 μM, 3-fold dilutions).
cAMP was quantified using a cAMP femto 2 kit (Sceti Medical Labo K. K.) by the method described in the materials appended in the kit. A kit reagent cAMP-d2 solution and a kit reagent Anti cAMP-Cryptate solution were added in each portion of 5 μL to each well of the above-described plate, and the reaction was stopped. After incubating the plate at room temperature for 1 hour, the fluorescent intensity was measured (an excitation wavelength of 320 nm and a fluorescent wavelength of 665 nm) using a plate reader (2103 Multilabel Reader (registered trademark EnVision), PerkinElmer, Inc.).
As a control group, a well without addition of dopamine was taken as 0% and a well with a dopamine final concentration of 3.3 μM was taken as 100%.
The dose-response curve of dopamine was drawn on the basis of the experiment carried out in the same manner as in (1) without the addition of a test drug.
In order to quantitatively compare the activity of the test drug, the activity was evaluated by EC50 2-fold potentiation.
In the present specification, “EC50 2-fold potentiation” is the test drug concentrations that enhanced the EC50 two-fold in the dose-response curve (2) of dopamine.
From the dose-response curve (1) of dopamine in the presence of the test drug at each concentration, the EC50 at the test drug concentration was obtained. From the correlation between the concentration of the test drug and the EC50, EC50 2-fold potentiation was calculated by extrapolation by a linear function (straight line).
Further, the EC50 value was calculated from the dose-response curves (1) and (2) of dopamine, using non-linear regression analysis. […]

T1 sequence (P21728 whole entry): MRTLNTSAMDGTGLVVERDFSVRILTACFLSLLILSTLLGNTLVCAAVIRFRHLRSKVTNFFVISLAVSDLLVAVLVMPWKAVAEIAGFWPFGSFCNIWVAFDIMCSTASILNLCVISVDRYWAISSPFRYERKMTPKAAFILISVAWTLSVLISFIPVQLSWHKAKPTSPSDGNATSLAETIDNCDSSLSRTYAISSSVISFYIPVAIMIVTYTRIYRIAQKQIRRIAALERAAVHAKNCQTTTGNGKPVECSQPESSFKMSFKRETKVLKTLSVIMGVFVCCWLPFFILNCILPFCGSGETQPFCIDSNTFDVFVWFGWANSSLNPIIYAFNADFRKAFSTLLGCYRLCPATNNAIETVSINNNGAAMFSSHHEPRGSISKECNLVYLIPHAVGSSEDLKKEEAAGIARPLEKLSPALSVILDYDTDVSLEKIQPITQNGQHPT

Question: `CN(Cc1nc2cc(C(F)(F)F)ccc2[nH]1)C(=O)Cn1c(=O)oc2ccc(Cl)cc21.Cl` [Example 1, 2-(5-chloro-2-oxo-1,3-benzoxazol-3 (2H)-yl)-N-methyl-N-{[5-(trifluoromethyl)-1H-benzimidazol-2-yl]methyl}acetamide hydrochloride] was tested. Which “Data 1: EC50 2-fold potentiation (test drug concentration that enhanced the dopamine EC50 two-fold)” value (shortened to “Data 1: EC50 2-fold potentiation”) did it give?
Answer: 460 nM

Question: How did the “Data 1: EC50 2-fold potentiation” value turn out when `CN(Cc1nc2cc(Cl)c(Cl)cc2n1CCO)C(=O)Cn1c(=O)oc2ccc(Cl)cc21.Cl` [Example 7, 2-(5-chloro-2-oxo-1,3-benzoxazol-3 (2H)-yl)-N-{[5,6-dichloro-1-(2-hydroxyethyl)-1H-benzimidazol-2-yl]methyl}-N-methylacetamide hydrochloride] was run?
Answer: 100 nM

Question: With `CN(Cc1nc2cc(Cl)ccc2[nH]1)C(=O)Cn1c(=O)oc2ccc(Cl)cc21.Cl` [Example 12] as the compound, how does the “Data 1: EC50 2-fold potentiation” value read?
Answer: 1000 nM

Question: `CN(Cc1nc2cc(Cl)c(F)cc2[nH]1)C(=O)Cn1c(=O)oc2ccc(Cl)cc21.Cl` [Example 14] was tested. Which “Data 1: EC50 2-fold potentiation” value did it give?
Answer: 1700 nM

Question: For `COc1cc2[nH]c(CN(C)C(=O)Cn3c(=O)oc4ccc(Cl)cc43)nc2cc1Br.Cl` [Example 15], which “Data 1: EC50 2-fold potentiation” value is on record?
Answer: 740 nM

Question: With `CN(Cc1nc2c(C(F)(F)F)cccc2[nH]1)C(=O)Cn1c(=O)oc2ccc(Cl)cc21.Cl` [Example 16] as the compound, how does the “Data 1: EC50 2-fold potentiation” value read?
Answer: 620 nM

Question: Which “Data 1: EC50 2-fold potentiation” value does the source give for `CN(Cc1nc2cc(C(F)(F)F)ccc2[nH]1)C(=O)Cn1c(=O)oc2ccc(Cl)c(F)c21` [Example 17] here?
Answer: 470 nM

Question: `CN(Cc1nc2cc(Br)ccc2[nH]1)C(=O)Cn1c(=O)oc2ccc(Cl)cc21` [Example 20] was tested. Which “Data 1: EC50 2-fold potentiation” value did it give?
Answer: 440 nM

Question: `CN(Cc1nc2cc(C3CC3)ccc2[nH]1)C(=O)Cn1c(=O)oc2ccc(C(F)(F)F)cc21` [Example 22] was tested. Which “Data 1: EC50 2-fold potentiation” value did it give?
Answer: 390 nM

Question: With `CN(Cc1nc2cc(Cl)ccc2[nH]1)C(=O)Cn1c(=O)oc2ccc(C(F)(F)F)cc21` [Example 25] as the compound, how does the “Data 1: EC50 2-fold potentiation” value read?
Answer: 450 nM

Question: Which “Data 1: EC50 2-fold potentiation” value does the source give for `CN(Cc1nc2cc(Cl)ccc2[nH]1)C(=O)Cn1c(=O)oc2ccc(OC(F)(F)F)cc21` [Example 26] here?
Answer: 370 nM

Question: How did the “Data 1: EC50 2-fold potentiation” value turn out when `CN(Cc1nc2cc(C(F)(F)F)ccc2[nH]1)C(=O)Cn1c(=O)oc2ccc(C(F)(F)F)c(F)c21` [Example 27] was run?
Answer: 460 nM

Question: With `Cc1cc2nc(CN(C)C(=O)Cn3c(=O)oc4ccc(Cl)cc43)[nH]c2cc1Cl` [Example 30] as the compound, how does the “Data 1: EC50 2-fold potentiation” value read?
Answer: 270 nM

Question: Which “Data 1: EC50 2-fold potentiation” value does the source give for `CN(Cc1nc2cc(OC(F)(F)F)ccc2[nH]1)C(=O)Cn1c(=O)oc2ccc(Cl)cc21` [Example 31] here?
Answer: 1100 nM

Question: Which “Data 1: EC50 2-fold potentiation” value does the source give for `CN(Cc1nc2c(Cl)cccc2[nH]1)C(=O)Cn1c(=O)oc2ccc(Cl)cc21` [Example 34] here?
Answer: 990 nM

Question: With `CN(Cc1nc2cc(Cl)c(Cl)cc2n1CC(C)(C)O)C(=O)Cn1c(=O)oc2ccc(Cl)cc21` [Example 37] as the compound, how does the “Data 1: EC50 2-fold potentiation” value read?
Answer: 300 nM

Question: How did the “Data 1: EC50 2-fold potentiation” value turn out when `CN(Cc1nc2c(C(F)(F)F)cccc2[nH]1)C(=O)Cn1c(=O)oc2ccc(C(F)(F)F)cc21` [Example 39] was run?
Answer: 400 nM

From patent publication US9708307B2, “Heterocyclic acetamide compound” (ASTELLAS PHARMA INC., priority 2013, dated 2017)
